According to PubChem BioAssay AID248 (DTP/NCI, 2004):
“And” between values parts separate entries of the source, which are not always exact repeats. Equal values may be shown once. Inconclusive results and toxic doses are left out. No stated cut-off is given here; in the data, active means T/C of 150% or more; inactive means T/C below 125%.

Test system: L1210 leukemia ip in BDF1 mice, survival T/C
Experiment: NCI In Vivo Anticancer Drug Screen. Data for tumor model L1210 Leukemia (intraperitoneal) in B6D2F1 (BDF1) mice
Details: endpoint: mean survival time, higher = longer survival
Summary of the method: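 Tumor cells were implanted, animals were treated, and survival was followed. The result divides the treated measurement by the vehicle-control measurement.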

[1] = dose: 75.0 mg/kg/injection, schedule: Q01DX001 (ip), vehicle: saline
[2] = dose: 100.0 mg/kg/injection, schedule: Q01DX009 (ip), vehicle: saline with Tween-80
[3] = dose: 100.0 mg/kg/injection, schedule: Q04DX003 (ip), vehicle: saline with Tween-80
[4] = dose: 200.0 mg/kg/injection, schedule: Q01DX009 (ip), vehicle: saline with Tween-80
[5] = dose: 200.0 mg/kg/injection, schedule: Q04DX003 (ip), vehicle: saline with Tween-80
[6] = dose: 400.0 mg/kg/injection, schedule: Q01DX009 (ip), vehicle: saline with Tween-80
[7] = dose: 400.0 mg/kg/injection, schedule: Q04DX003 (ip), vehicle: saline with Tween-80
[8] = dose: 100.0 mg/kg/injection, schedule: Q01DX009 (ip), vehicle: Klucel (hydroxypropylcellulose) (HPC)
[9] = dose: 100.0 mg/kg/injection, schedule: Q04DX003 (ip), vehicle: Klucel (hydroxypropylcellulose) (HPC)
[10] = dose: 200.0 mg/kg/injection, schedule: Q01DX009 (ip), vehicle: Klucel (hydroxypropylcellulose) (HPC)
[11] = dose: 200.0 mg/kg/injection, schedule: Q04DX003 (ip), vehicle: Klucel (hydroxypropylcellulose) (HPC)
[12] = dose: 400.0 mg/kg/injection, schedule: Q01DX009 (ip), vehicle: Klucel (hydroxypropylcellulose) (HPC)
[13] = dose: 50.0 mg/kg/injection, schedule: Q01DX009 (ip), vehicle: Klucel (hydroxypropylcellulose) (HPC)
[14] = dose: 100.0 mg/kg/injection, schedule: Q01DX001 (ip), vehicle: saline
[15] = dose: 200.0 mg/kg/injection, schedule: Q01DX001 (ip), vehicle: saline
[16] = dose: 400.0 mg/kg/injection, schedule: Q01DX001 (ip), vehicle: saline

Measured: T/C

O=C1CCCCC1c1cccc2ccccc12 (stereo not given)
inactive: dose: 100.0 mg/kg/injection, schedule: Q01DX001 (sc), vehicle: olive oil, sesame oil, peanut oil 97 % of control | dose: 200.0 mg/kg/injection, schedule: Q01DX001 (sc), vehicle: olive oil, sesame oil, peanut oil 104 % of control | dose: 400.0 mg/kg/injection, schedule: Q01DX001 (sc), vehicle: olive oil, sesame oil, peanut oil 106 % of control

CCOC(=O)C(=N\Nc1cccc(C)c1C)/C(C)=N\NC(N)=S
inactive: [1] 94 % of control | dose: 150.0 mg/kg/injection, schedule: Q01DX001 (ip), vehicle: saline 97 % of control | dose: 300.0 mg/kg/injection, schedule: Q01DX001 (ip), vehicle: saline 97 % of control

CC(=O)N1C(=O)NC(=O)C1(C)c1ccc(Cl)s1 (stereo not given)
inactive: [2] 96 % of control | [3] 100 % of control | [4] 103 % of control | [5] 97 % of control | [6] 91 % of control | [7] 88 % of control

CCC(CC)(CCN(C)C)c1ccccc1
inactive: dose: 50.0 mg/kg/injection, schedule: Q01DX001 (ip), vehicle: carboxymethylcellulose (CMC) 98 % of control | dose: 100.0 mg/kg/injection, schedule: Q01DX001 (ip), vehicle: carboxymethylcellulose (CMC) 98 % of control | dose: 200.0 mg/kg/injection, schedule: Q01DX001 (ip), vehicle: carboxymethylcellulose (CMC) 104 % of control

CC(N)C(=O)NC(Cc1ccccc1)C(=O)O (stereo not given)
inactive: dose: 100.0 mg/kg/injection, schedule: Q01DX001 (ip), vehicle: acetone 101 % of control | dose: 200.0 mg/kg/injection, schedule: Q01DX001 (ip), vehicle: acetone 97 % of control | dose: 400.0 mg/kg/injection, schedule: Q01DX001 (ip), vehicle: acetone 101 % of control

COC(=O)c1ccc2oc(=O)cc(C)c2c1O
inactive: [2] 95 % of control | [3] 93 % of control | [4] 100 % of control | [5] 95 % of control | [6] 94 % of control | [7] 93 % of control

O=C(Nc1ccccn1)Nc1ccccn1
inactive: [8] 104 % of control | [9] 98 % of control | [10] 104 % of control | [11] 87 % of control | dose: 400.0 mg/kg/injection, schedule: Q04DX003 (ip), vehicle: Klucel (hydroxypropylcellulose) (HPC) 106 % of control

OC(/N=C/c1ccccc1)C(Cl)(Cl)Cl (stereo not given)
inactive: dose: 100.0 mg/kg/injection, schedule: Q04DX002 (ip), vehicle: Klucel (hydroxypropylcellulose) (HPC) 103 % of control | dose: 200.0 mg/kg/injection, schedule: Q04DX002 (ip), vehicle: Klucel (hydroxypropylcellulose) (HPC) 88 % of control | dose: 400.0 mg/kg/injection, schedule: Q04DX002 (ip), vehicle: Klucel (hydroxypropylcellulose) (HPC) 114 % of control

COC(=O)/C=C1\C(C(=O)OC)=Cc2ccccc2N1C
inactive: [2] 97 % of control | [3] 98 % of control | [4] 91 % of control | [5] 98 % of control | [6] 94 % of control | [7] 96 % of control

C=C1N(C)c2ccccc2C1(C)C
inactive: dose: 0.5 mg/kg/injection, schedule: Q01DX015 (ip), vehicle: carboxymethylcellulose (CMC) 97 % of control | dose: 1.0 mg/kg/injection, schedule: Q01DX015 (ip), vehicle: carboxymethylcellulose (CMC) 101 % of control | dose: 2.0 mg/kg/injection, schedule: Q01DX015 (ip), vehicle: carboxymethylcellulose (CMC) 104 % of control | dose: 4.0 mg/kg/injection, schedule: Q01DX015 (ip), vehicle: carboxymethylcellulose (CMC) 97 % of control and 123 % of control | dose: 8.0 mg/kg/injection, schedule: Q01DX015 (ip), vehicle: carboxymethylcellulose (CMC) 123 % of control

COc1ccc(NC(=O)Oc2ccc(-c3ccccc3)cc2Cl)c(OC)c1
inactive: [8] 97 % of control | [10] 101 % of control | [12] 92 % of control

CC(=O)Nc1ccc(/C=N/NC(=O)c2ccc(C)cc2)cc1
inactive: dose: 50.0 mg/kg/injection, schedule: Q01DX009 (ip), vehicle: saline with Tween-80 93 % of control | [4] 90 % of control

O=C1c2cscc2C(O)(c2ccccc2)c2c(Cl)sc(Cl)c21 (stereo not given)
inactive: dose: 100.0 mg/kg/injection, schedule: Q01DX001 (ip), vehicle: saline with Tween-80 88 % of control | dose: 200.0 mg/kg/injection, schedule: Q01DX001 (ip), vehicle: saline with Tween-80 88 % of control | dose: 400.0 mg/kg/injection, schedule: Q01DX001 (ip), vehicle: saline with Tween-80 88 % of control

COc1ccc(Cl)cc1Cl
inactive: dose: 75.0 mg/kg/injection, schedule: Q01DX009 (ip), vehicle: saline 90 % of control | dose: 75.0 mg/kg/injection, schedule: Q04DX003 (ip), vehicle: saline 100 % of control | dose: 150.0 mg/kg/injection, schedule: Q01DX009 (ip), vehicle: saline 86 % of control | dose: 150.0 mg/kg/injection, schedule: Q04DX003 (ip), vehicle: saline 95 % of control | dose: 300.0 mg/kg/injection, schedule: Q01DX009 (ip), vehicle: saline 92 % of control | dose: 300.0 mg/kg/injection, schedule: Q04DX003 (ip), vehicle: saline 90 % of control

CCCCN(C)CCNc1cc(C)nc(/N=C(\N)Nc2ccc(Cl)c(Cl)c2)n1
inactive: dose: 18.75 mg/kg/injection, schedule: Q01DX009 (ip), vehicle: Klucel (hydroxypropylcellulose) (HPC) 103 % of control | dose: 37.5 mg/kg/injection, schedule: Q01DX009 (ip), vehicle: Klucel (hydroxypropylcellulose) (HPC) 97 % of control

CCN(C(=S)Nc1cccc2ccccc12)c1ccccc1
inactive: [8] 100 % of control | [10] 96 % of control | [12] 92 % of control

CC(=O)Nc1cccc(Br)c1
inactive: [13] 101 % of control | [8] 106 % of control and 90 % of control | [10] 95 % of control and 102 % of control

O=[N+]([O-])/C=C\c1ccc2c(c1)OCO2
inactive: dose: 25.0 mg/kg/injection, schedule: Q01DX009 (ip), vehicle: Klucel (hydroxypropylcellulose) (HPC) 87 % of control and 103 % of control | [13] 89 % of control and 100 % of control | [14] 106 % of control | [8] 103 % of control | [9] 102 % of control | [15] 119 % of control | [11] 97 % of control | [16] 97 % of control

CCOP(=S)(OCC)SCc1ccccc1
inactive: [3] 97 % of control | [5] 98 % of control | [7] 106 % of control

CCN1CCCC(Nc2cc(C)nc(/N=C(\N)Nc3ccc(Cl)c(Cl)c3)n2)C1 (stereo not given)
inactive: [1] 92 % of control

O=P1(N(CCCl)CCCl)NC(OO)CCO1 (stereo not given)
active: dose: 200.0 mg/kg/injection, schedule: Q01DX001 (ip), vehicle: DMSO 270 % of control

O=c1c2[nH]cnc2nnn1CCc1ccccc1
inactive: dose: 100.0 mg/kg/injection, schedule: Q01DX001 (ip), vehicle: other 94 % of control | dose: 200.0 mg/kg/injection, schedule: Q01DX001 (ip), vehicle: other 93 % of control | dose: 400.0 mg/kg/injection, schedule: Q01DX001 (ip), vehicle: other 91 % of control

Cc1cccc(C)c1NC(=O)c1ccccc1Cl
inactive: [2] 104 % of control | [4] 97 % of control | [6] 104 % of control

Cc1cc2cc3n(c2nn1)N=CCC3
inactive: dose: 100.0 mg/kg/injection, schedule: Q04DX002 (ip), vehicle: saline 106 % of control | dose: 200.0 mg/kg/injection, schedule: Q04DX002 (ip), vehicle: saline 103 % of control

CC(=O)OC1CCC2CCCCC2/C1=N\O (stereo not given)
inactive: dose: 50.0 mg/kg/injection, schedule: Q04DX003 (ip), vehicle: saline 112 % of control | dose: 100.0 mg/kg/injection, schedule: Q04DX003 (ip), vehicle: saline 95 % of control | dose: 200.0 mg/kg/injection, schedule: Q04DX003 (ip), vehicle: saline 97 % of control

N#C/C(=N\O)C(N)=O
inactive: [14] 102 % of control and 103 % of control | [15] 98 % of control and 107 % of control | [16] 93 % of control and 107 % of control

O=C(N/N=C\c1ccc(O)cc1)N/N=C/c1ccc(O)cc1
inactive: dose: 100.0 mg/kg/injection, schedule: Q01DX001 (ip), vehicle: Klucel (hydroxypropylcellulose) (HPC) 94 % of control | dose: 200.0 mg/kg/injection, schedule: Q01DX001 (ip), vehicle: Klucel (hydroxypropylcellulose) (HPC) 95 % of control | dose: 400.0 mg/kg/injection, schedule: Q01DX001 (ip), vehicle: Klucel (hydroxypropylcellulose) (HPC) 89 % of control
